In publication PMC12395297, “Bidirectional Modification of a Galbulimima Alkaloid Identifies Selective Opioid Ligands” (ACS Central Science, 2025):
Entries after “also recorded” stand apart in the source; their conditions may differ.

How the values were obtained:
[1] = target: T1, KOR (Homo sapiens, UniProt P41145); set-up: method as in earlier paper of the authors (Woo, Shenvi, Nature 2022); settings: antagonism; TANGO β-arrestin signaling, n = 3; ref earlier paper of the authors (Woo, Shenvi, Nature 2022); cited from earlier work
[2] = target: MOR (Homo sapiens, UniProt P35372); set-up: method as in earlier paper of the authors (Woo, Shenvi, Nature 2022); settings: antagonism; TANGO β-arrestin signaling, n = 3; ref earlier paper of the authors (Woo, Shenvi, Nature 2022); cited from earlier work
[3] = target: T1, KOR; experiment: 35S-GTPγS binding in CHO-KOR cells; type: biochemical; settings: read-out: KOR Emax
[4] = test system: 320 GPCRs; experiment: GPCRome PRESTO-Tango screen across 320 GPCRs (PDSP); type: cell-based
[5] = target: T1, KOR; experiment: KOR affinity (pKi) of pyridyl GB18 analogs, Figure 1b; type: binding; settings: footnote a
[6] = target: T1, KOR; experiment: Inhibition of forskolin-stimulated cAMP accumulation (KOR agonism, HTRF); type: cell-based

T1 sequence (P41145 whole entry): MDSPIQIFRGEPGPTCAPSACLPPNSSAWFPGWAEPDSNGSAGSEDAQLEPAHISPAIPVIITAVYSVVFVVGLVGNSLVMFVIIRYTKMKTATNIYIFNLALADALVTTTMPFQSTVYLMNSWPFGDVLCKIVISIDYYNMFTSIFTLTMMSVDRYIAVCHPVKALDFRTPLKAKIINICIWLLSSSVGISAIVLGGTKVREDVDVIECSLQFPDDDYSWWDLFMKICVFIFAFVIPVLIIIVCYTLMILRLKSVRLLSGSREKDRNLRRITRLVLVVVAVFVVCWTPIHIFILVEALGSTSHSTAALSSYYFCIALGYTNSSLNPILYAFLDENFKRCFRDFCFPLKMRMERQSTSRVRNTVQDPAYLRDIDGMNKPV
Sequence of MOR (P35372 whole entry): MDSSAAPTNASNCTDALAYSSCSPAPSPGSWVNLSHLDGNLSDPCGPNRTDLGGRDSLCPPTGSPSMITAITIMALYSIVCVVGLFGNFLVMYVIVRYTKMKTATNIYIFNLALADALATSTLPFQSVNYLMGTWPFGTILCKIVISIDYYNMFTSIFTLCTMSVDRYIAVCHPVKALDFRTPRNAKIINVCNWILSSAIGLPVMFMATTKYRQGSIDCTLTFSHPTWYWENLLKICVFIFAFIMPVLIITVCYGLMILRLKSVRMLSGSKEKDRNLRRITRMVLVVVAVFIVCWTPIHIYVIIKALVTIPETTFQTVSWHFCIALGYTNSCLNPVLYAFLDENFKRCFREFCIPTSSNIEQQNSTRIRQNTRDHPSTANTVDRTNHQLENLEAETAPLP

For GB18, the “KOR pIC50” value [1] is given as 8 and the “MOR pIC50” value [2] is given as 8.
In the case of `COC(=O)C1=CC23CCCCC2C2CC(c4cccc(C)n4)C(C)(O3)C12` (stereo not shown) [compound 2], the Emax [3] is reported as 34%, the “GPCR selectivity in PRESTO-Tango agonist screen” value [4] is reported as “highly selective partial agonist; also recorded: agonized KOR with high selectivity among 320 GPCRs” and the Ki [5] is reported as 29.5 nM. The EC50 ([6]; inhibition of forskolin-stimulated cAMP accumulation, Figure 4 and text) was 476 nM and the Emax ([6]; read-out: KOR Emax) was 56%.
